{"source": "patent US20090232735A1", "about": "“USE OF FRUCTOSE-BASED THERAPIES FOR THE TREATMENT OF CANCER” (CEDARS-SINAI MEDICAL CENTER, priority 2005, published 2009)", "type_in_all_cases": "cell-based, human", "key": {"[1]": {"test_system": "AP-1 activation in PANC-1 cells", "test": "AP-1 probe binding assay, PANC-1 nuclear extracts", "details": "PANC-1, 5.5 mM fructose, 48 h", "description": "(§1) FIG. 24 depicts luciferase activity of PANC-1 cells and primary culture of surgically resected pancreatic tumor cells in accordance with an embodiment of the present invention. PANC-1 pancreatic cancer cells and a primary culture of a surgically resected pancreatic tumor were incubated in 2 mM glucose, 5.5 mM glucose or 5.5 mM fructose for 48 h, after which nuclear extracts were incubated with a biotinylated AP-1 probe, and detected by an antibody-linked colorimetric method. *, p<0.01\n(§2) In separate experiments PANC-1 cells, and primary cultures of surgically resected pancreatic tumors were incubated in 2 mM glucose, or 5.5 mM glucose or 5.5 mM fructose for 48 h, after which nuclear extracts were incubated with a biotinylated AP-1 probe in binding buffer. AP-1/AP1 probe complexes were next conjugated to a streptavidin-coated assay plate and detected using an AP-1 specific antibody, followed by binding of a horseradish-peroxidase conjugated secondary antibody, and detection by a colorimetric reagent."}, "GLUT-5 mRNA": {"test_system": "GLUT-5 mRNA", "test": "GLUT-5 mRNA by real-time RT-PCR in PANC-1 cells", "description": "FIG. 22 depicts […] mRNA levels in pancreatic cancer cells in accordance with an embodiment of the present invention. Quantitative real-time RT-PCR was used to measure GLUT-5 mRNA levels in pancreatic cancer cells (PANC-1), following culture in 2 mM glucose, 5.5 mM glucose, or 5.5 mM fructose for 4 h and 24 h.\nBrit J Biomed Sci 56(4): 285-292, 1999; Rogers S, Docherty S E, Slavin J L, Henderson and Best J D. Differential expression of GLUT12 in breast cancer and normal breast tissue. Cancer Letters 193(2): 225-233, 2003). […] Teal-time RT-PCR was used to measure GLUT-5 mRNA expression following 2 mM, and 5.5 mM glucose-, and 5.5 mM fructose-treatment for 4 h, and 24 h respectively. GLUT-5 mRNA was expressed as the fold-change relative to GLUT-5 mRNA levels in 2 mM glucose-treated cells. As depicted in FIG. 22, at 4 h, GLUT-5 mRNA levels were low in both the 5.5 mM glucose-, and fructose-treated PANC-1 cells. […] This agrees with other studies which have reported fructose-induced GLUT-5 mRNA expression in colon cancer (Gouyon F, Onesto C, Dalet V, Pages G, Leturque A, and Brot-Laroche E. Fructose modulates GLUT5 mRNA stability in differentiated Caco-2 cells: Role of cAMP-signalling pathway and PABP (polyadenylated-binding protein)-interacting protein (Paip) 2. J Biochem 375:167-174, 2003)."}, "[2]": {"test_system": "MAPK pathway (pERK, pRSK, pMEK)", "test": "Western blot of MAPK pathway in PANC-1 cells", "details": "PANC-1, 5.5 mM sugar, 48 h", "description": "FIG. 23 depicts Western blot analysis examining MAPK pathway expression in accordance with an embodiment of the present invention. PANC-1 pancreatic cancer cells were incubated in 2 mM glucose, 5.5 mM glucose or 5.5 mM fructose for 48 hours, after which Western blot analysis on total protein lysates was employed to examine phosphorylated MEK (pMEK), pRSK, and pCREB, and corresponding total MEK, RSK, and CREB levels.\nSeveral signal transduction pathways may be involved in fructose-mediated pancreatic cancer growth but given the importance of the MAPK pathway in proliferation, the inventors believed that MAPK was involved. In the MAPK pathway, MEK mediated phosphorylation of the p44/42 MAP kinase (ERK) is the first step in this cascade, which results in phosphorylation of p90^Rsk, leading to transcriptional activation of CREB, and AP1, activating gene transcription and promoting cellular growth. The inventors employed Western blot analysis to examine MAPK pathway expression in pancreatic cancer cells incubated in 2 mM glucose, 5.5 mM glucose, and 5.5 mM fructose for 48 hours. Levels of the active phosphorylated proteins, pERK, pRSK, and pMEK were normalized to total ERK, RSK, and MEK levels respectively, and compared between the fructose-, and glucose-treated PANC-1 cells."}, "[3]": {"test_system": "primary cultures of fresh surgically resected pancreatic cancers", "test": "BRDU uptake in primary cultures of resected pancreatic cancers", "details": "all 5 primary pancreatic cancers, 5.5 mM, 72 h", "description": "FIG. 18 depicts BRDU incorporation by pancreatic cells in accordance with an embodiment of the present invention. Freshly resected pancreatic cancers were mechanically, and enzymatically dispersed, and cells were pre-incubated in 2 mM glucose prior to treatment with 5.5 mM glucose or fructose for 72 h. BRDU (10 μM) was added to the medium at 48 h, and BRDU-uptake quantified at 72 h.\nAs immortalized cell-lines, such as PANC-1 pancreatic cancer cells, can become dedifferentiated after repeated passages, and in order to translate these findings in the PANC-1 cells to patients with pancreatic cancer, the inventors also examined proliferative rates in primary cultures of fresh surgically resected pancreatic cancers, following incubation in 2 mM, and 5.5 mM glucose or 5.5 mM fructose. Briefly, after mechanical and enzymatic (trypsin and DNAse) disaggregation, aliquots of tumor cells were seeded in 6-well plates, and incubated in standard DMEM media with 10% fetal bovine serum, and 2 mM glucose, 5.5 mM glucose, or 5.5 mM fructose for 72 h. As before in the PANC-1 experiments, BRDU (10 μM) was added in the […] of incubation in the sugars, following which BRDU-uptake was quantified."}, "[4]": {"test_system": "AP1 activation in MCF-7 breast cancer cells", "test": "ELISA-based transbinding AP1 assay in breast cancer cells", "details": "5.5 mM sugar", "description": "FIG. 12 depicts an increase in AP1 activation in fructose-treated cells in accordance with an embodiment of the present invention. MCF-7 breast cancer cells were incubated in 2 mM glucose, or 5 mM glucose or fructose for 24 h, after which nuclear extracts were incubated with a biotinylated AP-1 probe in binding buffer. AP-1/AP1 probe complexes were next conjugated to a streptavidin-coated assay plate and detected using an AP-1 specific antibody, followed by binding of a horseradish-peroxidase conjugated secondary antibody, and detection by a colorimetric reagent. *, p<0.001.\nAlthough several signal transduction pathways are likely involved in the fructose-mediated enhanced breast cancer growth and while not wishing to be bound by any particular theory, the inventors believe that the MAP-kinase pathway is involved. The inventors have used Western blot analysis to examine the MAPK pathway in breast cancer cells incubated in 2 mM glucose, 5.5 mM glucose, and 5.5 mM fructose for 48 hours. […] Activation of MEK, and subsequently ERK results in phosphorylation of p90^Rsk, which leads to transcriptional activation of CREB and AP1, which bind to cAMP or AP1 response elements respectively, activating gene transcription and promoting cellular growth."}, "[5]": {"test_system": "AP-1 activation in a primary culture of a pancreatic tumor", "test": "AP-1 probe binding assay, primary pancreatic tumor culture", "details": "5.5 mM sugar", "description": "as §1, §2"}}, "data": [{"smiles": "O=C(CO)[C@@H](O)[C@H](O)[C@H](O)CO", "note": "[fructose]", "values": [{"measurement": "AP-1 luciferase reporter activity higher than in 5.5 mM glucose", "setting": "[1]", "value": "approximately 40%"}, {"measurement": "GLUT-5 mRNA levels higher than in 2 mM glucose-treated cells", "setting": "GLUT-5 mRNA; PANC-1, 5.5 mM fructose, 24 h", "value": 1.5, "unit": "fold"}, {"measurement": "GLUT-5 mRNA levels higher than in 5.5 mM glucose-treated cells", "setting": "GLUT-5 mRNA; PANC-1, 5.5 mM fructose, 24 h", "value": 1.75, "unit": "fold"}, {"measurement": "GLUT-5 mRNA levels", "setting": "GLUT-5 mRNA; PANC-1, 5.5 mM sugar, 4 h", "value": "low"}, {"measurement": "pERK, pRSK, and pMEK expression", "setting": "[2]", "value": "highest pERK, pRSK, and pMEK expression"}, {"measurement": "proliferative rates (BRDU-uptake) in fructose compared to glucose", "setting": "[3]", "value": "higher proliferative rates"}, {"measurement": "increase in AP1 activation", "setting": "[4]", "value": 3, "unit": "fold"}, {"measurement": "increase in AP-1 activation compared to 2 mM glucose", "setting": "[5]", "value": 2.1, "unit": "fold"}]}]}
